Assay results from ChEMBL document CHEMBL1141220, “A new class of HIV-1 protease inhibitors containing a tertiary alcohol in the transition-state mimicking scaffold” (J Med Chem, 2005).

Experiments:
[1] = target: Human immunodeficiency virus type 1 protease (Human immunodeficiency virus 1, UniProt Q72874); assay: Inhibitory activity against HIV1 protease expressed in Escherichia coli in a fluorometric assay
[2] = system: MT4; assay: Antiviral activity against HIV1 infected MT4 cells by colorimetric XTT assay; type: functional, cell-based; settings: Homo sapiens
[3] = system: MT4; assay: Antiviral activity against mutant HIV1 (V32I, M46I, A71V, V82A) infected MT4 cells by colorimetric XTT assay; type: functional, cell-based
[4] = Caco-2 cell membrane permeability; type: ADME, cell-based; settings: human
[5] = system: MT4; assay: Antiviral activity against mutant HIV1 (V32I, M46I, V82A) infected MT4 cells by colorimetric XTT assay; type: functional, cell-based
[6] = Intrinsic clearance (CL) in human liver microsomes at 2 uM; type: ADME, Microsome

Row | SMILES | Ki [1] [nM] | EC50 [2] [nM] | EC50 [3] [nM] | Papp [4] [×10⁻⁶ cm/s] | EC50 [5] [nM] | microsomal CLint at 2 µM [6] [µL/min/mg]
1 | CC(C)[C@H](NC(=O)OCc1ccccc1)C(=O)NN(Cc1ccccc1)C[C@@](O)(Cc1ccccc1)C(=O)N[C@H]1c2ccccc2C[C@H]1O | 23 | > 10000 | – | – | – | –
2 | COC(=O)N[C@H](C(=O)NN(Cc1ccc(Br)cc1)C[C@@](O)(Cc1ccccc1)C(=O)N[C@H]1c2ccccc2C[C@H]1O)C(C)(C)C | – | 1100 | 800 | 42 | 900 | –
3 | COC(=O)N[C@H](C(=O)NN(Cc1ccccc1)C[C@@](O)(Cc1ccccc1)C(=O)N[C@H]1c2ccccc2C[C@H]1O)C(C)C | 9 | 4800 | – | – | – | –
4 | CC(C)(C)[C@H](NC(=O)OCc1ccccc1)C(=O)NN(Cc1ccccc1)C[C@@](O)(Cc1ccccc1)C(=O)N[C@H]1c2ccccc2C[C@H]1O | 18 | > 10000 | – | – | – | –
5 | COC(=O)N[C@H](C(=O)NN(Cc1ccccc1)C[C@](O)(Cc1ccccc1)C(=O)N[C@H]1c2ccccc2C[C@H]1O)C(C)(C)C | – | > 10000 | – | – | – | –
6 | CC(C)[C@H](NC(=O)OCc1ccccc1)C(=O)NN(Cc1ccc(Br)cc1)C[C@@](O)(Cc1ccccc1)C(=O)N[C@H]1c2ccccc2C[C@H]1O | 17 | > 10000 | – | – | – | –
7 | CC(C)(C)[C@H](NS(C)(=O)=O)C(=O)NN(Cc1ccccc1)C[C@@](O)(Cc1ccccc1)C(=O)N[C@H]1c2ccccc2C[C@H]1O | 63 | > 10000 | – | – | – | –
8 | CC(C)(C)[C@H](NC(=O)NCc1ccccc1)C(=O)NN(Cc1ccccc1)C[C@@](O)(Cc1ccccc1)C(=O)N[C@H]1c2ccccc2C[C@H]1O | 22 | > 10000 | – | – | – | –
9 | CC(C)[C@H](NC(=O)OCc1ccccc1)C(=O)NN(Cc1ccccc1)C[C@](O)(Cc1ccccc1)C(=O)N[C@H]1c2ccccc2C[C@H]1O | 870 | > 10000 | – | – | – | –
10 | COC(=O)N[C@H](C(=O)NN(Cc1ccccc1)C[C@@](O)(Cc1ccccc1)C(=O)N[C@H]1c2ccccc2C[C@H]1O)C(C)(C)C | 6 | 1900 | 1600 | 35 | 2000 | 527
